Patent US11576914B2, “Drug for treating or preventing disorder caused by TGF-β signaling, and application thereof” (THE DOSHISHA, priority 2017, dated 2023)

Columns and labels:
[1] = tested on: corneal endothelium; experiment: Histological analysis of the corneal endothelium after instillation; assay type: in vivo
From the text: Rabbits were euthanized, and then their eyes were removed and histologically analyzed. Expression of markers related to corneal endothelial functions was confirmed by immunostaining. The sclerocornea fragments were fixed with 0.5% paraformaldehyde and then blocked with 1% bovine serum albumin. As primary antibodies, ZO-1 antibody (Life Technologies) and N-cadherin antibody (BD Biosciences), which are indicators of the barrier function of corneal endothelial cells, and Na^+/K^+-ATPase antibody (MILLIPORE), which is an indicator of pump functions, were added, followed by standing at 4° C. overnight. […] Further, nuclear staining was performed using DAPI (Dojindo). To observe the cell morphology, actin was stained using Phalloidin (Life Technologies). The stained sclerocornea fragments were mounted in slide glasses and observed using a confocal fluorescence microscope (TCS SPE, Leica).
In addition, rabbits were euthanized, and then their eyes were removed. To assess cell death, the sclerocornea fragments were stained with Annexin V (Zymed Laboratories) and PI (Zymed Laboratories), fixed with 0.5% paraformaldehyde, and nuclear stained with DAPI (Dojindo). The stained sclerocornea fragments were mounted in slide glass and observed using a confocal fluorescence microscope (TCS SPE, Leica). Staurosporine (10 μM, Merck Millipore) was administered into the anterior chamber of a rabbit eyeball, and after 24 hours, it was used as a positive control.

[2] = tested on: cleaved caspase-3 and PARP; experiment: Western blot of caspase 3 and PARP in iFECD stimulated with TGF-β2; assay type: cell-based, human; settings: 0.1 μM
Protocol: The medium was removed from the culture dish of cultured disease model cells, and the disease model cells were supplemented with 1×PBS (−) that was preheated to 37° C., followed by washing. This operation was repeated twice. The cells were supplemented with 1×PBS (−) again and incubated for 5 minutes at 37° C. (5% CO2). After the PBS (−) was removed, the cells were supplemented with 0.05% Trypsin-EDTA (nacalai tesque, 32778-34) and incubated for 5 minutes at 37° C. (5% CO2). The cells were then suspended in a medium, and collected by centrifugation at 1500 rpm for 3 minutes. Medium: DMEM (nacalai tesque, 08456-36)+10% FBS (Biowest, S1820-500)+1% P/S (nacalai tesque, 26252-94).
The Fuchs' endothelial corneal dystrophy patient-derived immortalized corneal endothelial cells were seeded in a 6-well plate at a rate of 1.5×10^5 cells per well and cultured at 37° C. (5% CO2) for 48 hours. DMEM+10% FBS+1% P/S was used as the medium. After 48 hours, the medium was removed, and SB203580 (Cayman, 13067), PH-797804 (Selleck Chemicals, S2726), VX-702 (Selleck Chemicals, 56005) and AKP-001 were added to DMEM+2% FBS+1% P/S so that all the final concentration was 0.1 μM, followed by culturing as 24-hour pretreatment.
After 24 hours, the medium was removed, and SB203580 (Cayman, 13067), PH-797804 (Selleck Chemicals, S2726), VX-702 (Selleck Chemicals, 56005) and AKP-001, together with 100 ng/ml recombinant human TGF-β2 (R & D systems, RND302-B2-002), were added to DMEM+2% FBS+1% P/S so that all the final concentration was 0.1 μM, followed by culturing for 24 hours. After 24 hours, the protein was subjected to Western blotting according to the following procedure to evaluate the effect on apoptosis.
The medium was collected on ice to collect free and dead cells as well. The solution obtained from washing the cells twice with 1×PBS (−) was also collected, followed by centrifugation of 800 g at 4° C. for 5 minutes. The supernatant was discarded to obtain precipitates. The washed cells were supplemented with a protein extraction buffer (RIPA; 50 mM Tris-HCl (pH 7.4), 150 mM NaCl, 1 mM EDTA, 0.1% SDS, 0.5% DOC, 1% NP-40) on ice to extract proteins. The precipitates from centrifuging the free and dead cells were also subsequently suspended together for extraction. The collected solution was pulverized three times for 30 seconds in cold water with a sonication device (BIORUPTOR, TOSHO DENKI) and centrifuged for 10 min at 4° C. at 15000 rpm to collect the supernatant of proteins.
Eight μg of the extracted protein was separated by SDS-PAGE and transferred onto a nitrocellulose membrane. A rabbit anti-Caspase 3 antibody (Cell Signaling, 9662), rabbit anti-PARP antibody (Cell Signaling, 9542), and mouse anti-GAPDH antibody (MBL, M171-3) were used as the primary antibodies. A peroxidase-labeled anti-rabbit antibody and anti-mouse antibody (GE Healthcare Biosciences, NA931V, NA934V) were used as the secondary antibodies. For the primary antibodies, the rabbit anti-PARP antibody was diluted 1000-fold, the rabbit anti-Caspase 3 antibody was diluted 1000-fold, and the mouse anti-GAPDH antibody was diluted 3000-fold. Further, the secondary antibody was diluted 5000-fold. Chemi Lumi ONE Ultra (Nacalai Tesque, 11644-40) was used for detection. The detected band strength was analyzed with a lumino image analyzer LAS-4000 mini (Fuji Film) and ImageQuant™ software (GE Healthcare).

`O=C(Cc1c(F)cccc1Cl)Nc1onc(-c2ccc(F)cc2)c1-c1ccncn1` [AKP-001, 5-[(2-chloro-6-fluorophenyl)acetylamino]-3-(4-fluorophenyl)-4-(4-pyrimidinyl)isoxazole] was tested, and the N-cadherin immunostaining ([1]; eyeball instilled 10 times) was “Expression along the cell membrane”, the “Na+/K+-ATPase immunostaining” value ([1]; eyeball instilled 10 times) was “Expression along the cell membrane” and the ZO-1 immunostaining ([1]; eyeball instilled 10 times) was “Expression along the cell membrane”. For the same compound, the “actin staining, form of the corneal endothelium” value ([1]; eyeball instilled 10 times) was “polygonal paving stones”, the “Annexin V and PI staining (cell death)” value ([1]; rabbit, in vivo) was “Neither staining with Annexin V nor PI was observed” and the “cleaved caspase-3 and PARP expression” value ([2]; 100 ng/ml TGF-β2, 24 hours) was “hardly any”. The caspase activity ([2]; TGF-β2) was “inhibited”.
